Laboratory results taken from US20210038682A1, “MODULATORS OF SMALL CONDUCTANCE CALCIUM ACTIVATED K+ CHANNELS AND PHARMACEUTICAL COMPOSITIONS FOR USE IN THE TREATMENT OF LESIONAL VESTIBULAR DISORDERS” (priority 2018, published 2021).

What was measured:
UVN adult female rats [1] = assay: Posturo-locomotor behavior tests (velocity, distance, immobility, meander) in the rat unilateral vestibular neurectomy model; format: in vivo; settings: AG525E1 10 mg/kg i.p., from day 1
Protocol: (§1) A unilateral vestibular neurectomy (UVN) was performed on adult female rats in order to induce unilateral vestibulopathy. Then, the small conductance calcium activated K^+ channels antagonists apamin, AG525E1 and NS8593 were administered intraperitoneally to UVN animals in double blind conditions once a day for 4 days, i.e. during the acute phase of the syndrome. It was then assessed the severity of posturo-locomotor deficits using appropriate behavior tests for 10 days after UVN. Subjective scoring of the vestibular syndrome was carried out according to the method previously published (Péricat et al. 2017; Tighilet et al. 2017). […]

UVN adult female rats [2] = assay: Subjective scoring of vestibular syndrome severity in the rat unilateral vestibular neurectomy model; format: in vivo
Protocol: as §1

[3] = systemic administration; cited from earlier work

For `COc1cc2c(cc1OC)C(CCCC1c3cc(OC)c(OC)cc3CCN1C)N(C)CC2` (stereo not shown) [AG525E1, 1,1′-(propane-1,3-diyl)-bis-(6,7-dimethoxy-2-methyl-1,2,3,4-tetrahydroisoquinoline)], the Immobility time (UVN adult female rats [1]) was “tendency to reduce immobility time” and the Vestibular syndrome severity (UVN adult female rats [2]; AG525E1 10 mg/kg i.p. once a day for 4 days, at day 1, p<0.05 vs negative control) was “significant decreased vestibular syndrome”.
In the case of `Cl.c1ccc2c(c1)CCC[C@H]2Nc1nc2ccccc2[nH]1` [NS8593, N-[(1R)-1,2,3,4-Tetrahydro-1-naphthalenyl]-1H-benzimidazol-2-amine hydrochloride], the Vestibular syndrome severity (UVN adult female rats [2]; NS8593 30 mg/kg i.p. once a day for 4 days, at day 1 and day 2, p<0.05 vs negative control) is reported as “significant decreased vestibular syndrome”.
In the case of `CC(C)C[C@@H]1NC(=O)[C@H](C)NC(=O)[C@H]([C@@H](C)O)NC(=O)[C@H](CCC(=O)O)NC(=O)[C@@H]2CCCN2C(=O)[C@H](C)NC(=O)[C@H](CCCCN)NC(=O)[C@@H]2CSSC[C@@H](C(=O)N[C@@H](CCC(N)=O)C(=O)N[C@@H](CCC(N)=O)C(=O)N[C@@H](Cc3cnc[nH]3)C(N)=O)NC(=O)[C@H](CCCNC(=N)N)NC(=O)[C@H](CCCNC(=N)N)NC(=O)[C@H](C)NC(=O)[C@H](CSSC[C@H](N)C(=O)N[C@@H](CC(N)=O)C(=O)N2)NC1=O` [apamin], the Blood-brain barrier crossing [3] is listed as “cross the blood-brain barrier”.
